The record followed here is patent US8492313B2, “Synergistic herbicidal combinations comprising tembotrione” (Bayer Cropscience AG, priority 2009, dated 2013).

This experiment deals with IPOHE (Ipomoea hederacea). In words: Post-emergence action against IPOHE. In kind it is in vivo. The procedure:
The herbicidal activity of the active substances or active substance mixtures was evaluated visually from the treated variants in comparison with untreated control variants. In this connection, damage to and development of all plant parts above ground was included. The evaluation was carried out according to a percentage scale (100% action=all plants dead; 50% action=50% of the plants and green plant parts dead; 0% action=no recognizable action=as untreated control plot).
Seeds or root pieces of mono- and dicotyledonous weeds are placed in sandy clay soil in pots, covered with earth and secured in a greenhouse under good growing conditions (temperature, air humidity, water supply). Approximately three weeks after sowing, the test plants are treated with the compositions according to the invention. The compositions according to the invention formulated as wettable powders or as emulsion concentrates are sprayed, in spray application, on to the green plant parts in different dosages with a water application rate of 600 to 800 l/ha (corrected). Immediately up to a few days after application, the test receptacles accumulate water over the ground surface by up to 30 mm. With the water application (submerged application), on the other hand, the ground in the closed test receptacle is already covered with the paddy water up to 30 mm at the time of the application. The formulated active substances are here added directly to the paddy water. After an exposure time of the test plants in the greenhouse of an additional 3 to 4 weeks under optimum growing conditions, the effect of the preparations is evaluated visually in comparison with untreated controls. […] In this connection, actions of the combinations according to the invention which exceed the formal sum of the actions of the herbicides when applied individually are frequently observed. The values observed for the tests show, with suitable low dosages, an action of the combinations which lies above the expected values according to Colby.
If the observed activity values already exceed the formal sum of the values for the tests with individual applications, then they likewise exceed the expected value according to Colby, which is calculated according to the following formula and is likewise regarded as an indication of synergy (cf. S. R. Colby in Weeds, 15 (1967), pp. 20 to 22):
In this connection: • A, B=action of the component A or B in percent at a dosage of a or b grams ai/ha. • E=expected value in % at a dosage of a+b grams ai/ha.
The abbreviation IPOHE is the harmful plant Ipomoea hederacea.

[1] abbreviates: dosage 50 g/ha, visual rating vs untreated control.

With `CCCc1ccc2nc(Cl)c(S(=O)(=O)NC(=O)Nc3nc(OC)cc(OC)n3)n2n1` [B14, propyrisulfuron], the “Action against IPOHE” value under setting [1] was found to be 30%.

In the case of `CCc1cc(C)cc(CC)c1-c1c(OC(=O)C(C)(C)C)n2n(c1=O)CCOCC2` [B13, pinoxaden], the “Action against IPOHE” value (dosage 30 g/ha) is recorded as 15%.

On to `Nc1cc(Cl)nc(C(=O)O)c1Cl` [B2, aminopyralid], for which, where the note is “dosage 75 g/ha”, the “Action against IPOHE” value came out at 30%.

On to `C#CCN(C)c1c(C#N)cnn1-c1nn2c(c1Cl)CCCC2` [B15, pyraclonil], for which the “Action against IPOHE” value (dosage 75 g/ha) came to 30%.

`COc1cc(OC)n2nc(NS(=O)(=O)c3c(C(F)(F)F)ccnc3OC)nc2n1` [B19, pyroxsulam]: the “Action against IPOHE” value (dosage 15 g/ha) worked out at 20%.

Take `COc1cc(OC)nc(NC(=O)NS(=O)(=O)Nc2ccccc2C(=O)N(C)C)n1` [B11, orthosulfamuron]: where the note is “dosage 30 g/ha”, the “Action against IPOHE” value was 40%.

For `Cc1nn(C)c(O)c1C(=O)c1ccc(C(F)(F)F)cc1S(C)(=O)=O` [B16, pyrasulfotole], the “Action against IPOHE” value (dosage 25 g/ha) came to 50%.

As for `COc1cc(OC)nc(NC(=O)NS(=O)(=O)Nc2ccccc2C(=O)C2CC2)n1` [B6, cyclosulfamuron], the “Action against IPOHE” value under setting [1] was found to be 20%.

In the case of `CS(=O)(=O)c1ccc(C(=O)C2C(=O)CCCC2=O)c(Cl)c1COCC(F)(F)F` [tembotrione], under setting [1], the “Action against IPOHE” value is on record as 40%.

With `Cn1nc(C(F)(F)F)c(CS(=O)(=O)C2=NOC(C)(C)C2)c1OC(F)F` [B18, pyroxasulfone], the “Action against IPOHE” value (dosage 75 g/ha) was found to be 15%.

For `CC(C)c1nn(C(=O)NC(C)(C)C)c(=O)n1N` [B1, amicarbazone], the “Action against IPOHE” value (dosage 125 g/ha) stood at 20%.

With `CC(C)N(C)S(=O)(=O)NC(=O)c1cc(-n2c(=O)cc(C(F)(F)F)n(C)c2=O)c(F)cc1Cl` [B20, saflufenacil], under “dosage 10 g/ha”, the “Action against IPOHE” value turned out to be 45%.

Regarding `COCC(=O)OC(c1ncccc1S(=O)(=O)NC(=O)Nc1nc(OC)cc(OC)n1)C(C)F` (centres unmarked) [B8, flucetosulfuron], under setting [1], the “Action against IPOHE” value was 20%.

As for `COc1cc(OC)nc(NC(=O)NS(=O)(=O)c2c(C3=NOCC(C)O3)c(Cl)nn2C)n1` (centres unmarked) [B21, 3-chloro-N-[(4,6-dimethoxypyrimidin-2-yl)carbamoyl]-1-methyl-4-(5-methyl-5,6-dihydro-1,4,2-dioxazin-3-yl)-1H-pyrazole-5-sulfonamide], the “Action against IPOHE” value under setting [1] came out at 15%.

For `Nc1nc(C2CC2)nc(C(=O)[O-])c1Cl.[K+]` [B4, aminocyclopyrachlor], the “Action against IPOHE” value under setting [1] stood at 35%.

`COCc1cccc(C(O)c2nc(OC)cc(OC)n2)c1NS(=O)(=O)C(F)F` (centres unmarked) [B17, pyrimisulfan]: the “Action against IPOHE” value under setting [1] is given as 20%.

For the compound `COc1cnc(OC)n2nc(NS(=O)(=O)c3c(OCC(F)F)cccc3C(F)(F)F)nc12` [B12, penoxsulam], the “Action against IPOHE” value (dosage 15 g/ha) was determined as 20%.

With `CC(C)N(C(=O)n1cnn(-c2ccc(Cl)cc2Cl)c1=O)c1ccc(F)cc1F` [B9, ipfencarbazone], the “Action against IPOHE” value under setting [1] was 25%.

For `C[C@@H](Oc1ccc(Oc2nc3ccc(Cl)cc3o2)cc1)C(=O)N(C)c1ccccc1F` [B10, metamifop], the “Action against IPOHE” value (dosage 75 g/ha) was 15%.

Regarding `Cc1ccc2c(c1)[C@H](Nc1nc(N)nc(C(C)F)n1)[C@@H](C)C2` (some centres unmarked) [B7, indaziflam], the “Action against IPOHE” value (dosage 25 g/ha) amounted to 25%.
